# How the values were obtained:
# [1] = Clearance of proET-1 peptides after i.v. bolus in anaesthetised rats; type: in vivo, rat
# Description: To examine whether circulating half-lives influenced plasma levels of proET-1 peptides clearance rates were investigated in anaesthetised rats. […] Based on a circulating blood volume of 7.2 ± 0.3 ml per 100 g body weight, a mean weight of 345 ± 6 g and hematocrit of 40–60%, the hypothetical maximum plasma concentrations were 23–35 pmol/ml. However, the levels of NT-proET-1, ELDP and CT-proET-1 30 s after injection were 0.29 ± 0.02, 3.65 ± 0.23, and 11.74 ± 0.64 pmol/ml, respectively. Relative to estimates for dilution in circulating blood, these values represent ≈1%, 10–16%, and 34–51% of administered peptide for NT-proET-1, ELDP and CT-proET-1. Moreover, NT-proET-1 was almost completely cleared from the circulation in <5 min (estimated initial t½ < 20 s).
# Figure 5 Comparison of clearance rates of NT-proET-1, ELDP and CT-proET-1 in anaesthetised rats. A bolus dose containing 1 nmol/kg of each proET-1 peptide as a combined solution prepared in 0.9% saline/0.1% BSA was administered i.v. and heparinised arterial blood samples (0.5 ml) were collected at 0.5, 1, 2, 5, 10, 20 and 40 min after administration of proET-1 peptides. NT-proET-1 (mauve circles), ELDP (red circles) and CT-proET-1 (blue circles) were measured by magnetic bead-based multiplex assays using Luminex methodology (values are mean ± SD, except where SD is less than the symbol size).
# A multiplexed immunoassay system was used for simultaneous measurement of NT-proET-1, ELDP and CT-proET-1 in small volumes of rat plasma. Capture antibodies were conjugated to magnetic beads (region 45 – NT-proET-1, region 36 – ELDP, and region 27 – CT-proET-1) following standard protocols (Luminex Corporation). For assay capture antibody-coated magnetic beads were diluted as a premixed combination (10 µl/well) and incubated overnight at 4 °C on an orbital plate mixer with plasma (15 µl) and assay buffer (135 µl). For detection, beads were washed using a ring magnet plate washer before adding 25 µl of combined biotinylated detection antibodies and incubating for 2 h at room temperature on an orbital plate mixer.
# All experiments were conducted according to the Animals (Scientific Procedures) Act 1986, UK, and approved by the UK Home Office. Clearance rates of proET-1 peptides and blood pressure effects of ELDP were determined in male Wistar rats (Charles River) anaesthetised with sodium thiopentone (120 mg/kg i.p.). Peptides were administered i.v. via a polyethylene catheter in the left femoral vein. Blood samples (0.5 ml) were collected from a catheter in the left carotid artery into chilled 1.5 ml microcentrifuge tubes containing 50 U/5 µl of heparin. Samples were centrifuged at 12,000 rpm for 2 min at 4 °C. Plasma (50 µl aliquots) samples were stored at −80 °C for subsequent analyses. Blood pressure and heart rate were recorded from the left carotid artery via a polyethylene catheter using Labchart 7.1 (AD Instruments Ltd).
# [2] = RP-HPLC elution position of synthetic proET-1 peptides; type: physicochemical; conditions: ACE-5 C4 300 Å, 5 µm, 4.6 × 250 mm, 1 ml/min, 0.1% TFA – 10% solvent B (80% CH3CN with 0.1% TFA) over 2 min, then 10–30% B over 50 min, 1 min fractions, absorbance at 280 nm and immunoassay
# Description: Figure 2 Size exclusion chromatography of peptide precipitates from (A) EA.hy 926 and (B) A549 cell lines, (C) cation exchange chromatography of conditioned media from EA.hy 926, and HPLC characterisation of pro-ET-1 peptides from EA.hy 926 cells – (D) NT-proET-1, (E) ELDP and (F) CT-proET-1. (A) and (B) proendothelin-1 peptides from EA.hy 926 and A549 cell lines were subjected to size exclusion chromatography (column 1.6 × 100 cm, Sephadex G50 superfine) equilibrated at 4 °C with 0.1 M NaCl containing 0.01 M HCl. Fractions were subjected to immunoassay for ppET-1[42–50] (open circles) and ppET-1[93–102] (closed circles). Elution positions of adrenomedullin (ADM, M r 6029), big ET-1 (bET-1, M r 4283) and ET-1 (M r 2492) are indicated. […] ELDP (red columns) and CT-proET-1 (blue columns) were measured using immunoassays. […]
# ProET-1 peptides were subjected to reverse phase HPLC on C4 silica (15 µm, 300 Å pore, 1 × 25 cm; Jupiter® Phenomenex) with gradient elution at 2 ml/min: 0.1% TFA – 15% solvent B (80% CH3CN with 0.1% TFA) over 2 min, followed by 15–60% B over 45 min. […] Synthetic peptides were used to characterise elution positions of NT-proET-1, ELDP and CT-proET-1 on this second HPLC system by monitoring absorbance at 280 nm and immunoassay of fractions. […]
# [3] = rat, 1 nmol/kg i.v. bolus, plasma sampled 0.5–40 min, two-phase clearance
sequence,measurement,setting,value
ALENLLPTKATDRENRCQCASQKDKKCWNFCQAGKELRAEDIMEKDWNNHKKGKDCSKLGKKCIYQQLVRGRKI (disulfide (positions not given here)) [ELDP],plasma level 30 s after injection,"[1]; anaesthetised male Wistar rats, bolus 1 nmol/kg i.v. of each peptide as a combined solution in 0.9% saline/0.1% BSA, arterial plasma, Luminex multiplex immunoassay, mean ± SD",3.65 ± 0.23 pmol/mL
same,"estimated t½, phase 1",[1]; [3],0.5 min
same,"estimated t½, phase 2",[1]; [3],5.7 min
same,"plasma level at 30 s as % of administered peptide, relative to estimates for dilution in circulating blood","[1]; rat, 1 nmol/kg i.v., hypothetical maximum plasma concentration 23–35 pmol/ml",10–16%
same,elution position on RP-HPLC (fraction number),[2],45 fraction

# Reference: paper PMC5503984, “Characterisation of preproendothelin-1 derived peptides identifies Endothelin-Like Domain Peptide as a modulator of Endothelin-1” (Scientific Reports, 2017)
